Assays:
[1] = Dissolution of tertiary amine with HCl and addition of alkali salts; format: physicochemical
Experimental: Further compositions containing the tertiary amine and hydrochloric acid were created. To these solutions, various quantities of alkali salts were added to evaluate the effect on solubility of the tertiary amine.

[2] = Dissolution of tertiary amine with HCl and sodium fluoride, without and with sodium chloride; format: physicochemical; conditions: hydrochloric acid, sodium fluoride and alkali salt added; compared to absence of additional inorganic salts
Text: A new batch of solutions was created similar to those shown in Table 2B, but with the addition of sodium fluoride.

[3] = Dissolution of tertiary amine in water without inorganic salts, with or without HCl; format: physicochemical
Text: Similar compositions were created as those listed in Table 1A, but instead of amine fluoride, a tertiary amine was used.

[4] = background statement; cited from earlier work
[5] = Dissolution of amine fluoride in water with addition of alkali salts
Text: Similar formulations are created also containing one or more alkali salts, selected from sodium chloride, potassium chloride and trisodium citrate dihydrate to investigate the effect of the salts' presence on solubility of the amine fluoride.

[6] = Dissolution of amine fluoride in water without additional salts (saturation concentration); conditions: no salts
Experimental: Amine fluoride is added in increasingly greater amounts to determine its saturation concentration, shown below in Table 1A.

[7] = with hydrochloric acid and about 5% alkali salt (composition 34)
[8] = when adding sodium chloride (composition 10)

| Compound | minimum addition of Sodium Chloride to fully dissolve 34% of tertiary amine ([1]; with hydrochloric acid) | solubility of tertiary amine in water [1, 7] | solubility of tertiary amine in water as concentration [1, 7] | change of solubility of the tertiary amine [2] | solubility of tertiary amine as concentration ([3]; with hydrochloric acid corresponding to hydronium level of equivalent amine fluoride) | solubility of tertiary amine ([3]; with hydrochloric acid corresponding to hydronium level of equivalent amine fluoride (compositions 21-23)) | solubility of the tertiary amine in water ([3]; without adjustment of pH) | solubility of the tertiary amine in water as concentration ([3]; without adjustment of pH) | aqueous solubility [4] | lowest concentration of sodium chloride shown to increase solubility of amine fluoride in water ([5]; sodium chloride) | solubility of amine fluoride in water [5, 8] | solubility of amine fluoride in water as concentration of tertiary amine [5, 8] | maximum solubility of amine fluoride in water [6] | maximum solubility of amine fluoride in water as concentration of tertiary amine ([6]; amine fluoride fully dissociated from hydrofluoride) |
| --- | --- | --- | --- | --- | --- | --- | --- | --- | --- | --- | --- | --- | --- | --- |
| CCCCCCCCCCCCCCCCCCN(CCO)CCCN(CCO)CCO [tertiary amine, N′-octadecyltrimethylendiamine-N,N,N′-tris(2-ethanol)] | about 1% | about 40 % by weight | about 870 mM | not increased any further | about 530 mM | above 24% | about 70 % by weight | about 1520 mM | – | – | – | – | – | – |
| CCCCCCCCCCCCCCCCCCN(CCO)CCCN(CCO)CCO.F.F [amine fluoride, N′-octadecyltrimethylendiamine-N,N,N′-tris(2-ethanol)-dihydrofluoride] | – | – | – | – | – | – | – | – | very low aqueous solubility | about 0.7% | above 35 % by weight | about 640 mM | approximately 24 % by weight | about 440 mM |

From US12544325B2, “Compositions and related methods” (Colgate-Palmolive Company, priority 2020, dated 2026)
